Data from US5403940A, “Vitamin D compound, method of preparing this compound and intermediate thereof” (Duphar International Research B.V., priority 1991, dated 1995).

Molecular target: T1, calf thymus intracellular vitamin D receptor (VDR) (Bos taurus, UniProt Q28037)
T1 construct: calf thymus intracellular vitamin D receptor (VDR); from tissue; host or cells: calf thymus
T1 sequence (Q28037 1-426): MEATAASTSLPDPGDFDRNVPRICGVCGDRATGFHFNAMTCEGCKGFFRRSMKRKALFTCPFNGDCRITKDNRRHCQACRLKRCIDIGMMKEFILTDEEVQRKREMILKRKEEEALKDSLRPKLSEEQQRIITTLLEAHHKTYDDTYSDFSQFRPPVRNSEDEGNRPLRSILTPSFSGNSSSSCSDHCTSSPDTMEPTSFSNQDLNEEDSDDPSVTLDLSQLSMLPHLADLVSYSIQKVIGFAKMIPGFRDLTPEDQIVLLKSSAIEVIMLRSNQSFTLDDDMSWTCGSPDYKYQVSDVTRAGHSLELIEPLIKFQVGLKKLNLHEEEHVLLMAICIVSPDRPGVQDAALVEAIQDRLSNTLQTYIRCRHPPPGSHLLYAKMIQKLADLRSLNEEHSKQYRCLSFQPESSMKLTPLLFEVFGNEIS
Test: Affinity towards the calf thymus intracellular vitamin D receptor, replacement of 3H-calcitriol
Type: binding
Text: In this assay ^3 H-calcitriol (1α,25-dihydroxycholecalciferol), which is specifically bound to the VDR, is replaced by the tested compound.

`C=C1/C(=C\C=C2/CCC[C@]3(CO)[C@@H]([C@H](C)CCCC(C)(C)O)CC[C@@H]23)C[C@@H](O)C[C@@H]1O` [compound 46] was tested, and the IC50 (compound dissolved in ethanol, 10^-13 to 10^-7 M, 3H-calcitriol bound to VDR, read-out: IC50 value, i.e. 50% replacement of 3H-calcitriol) was 250 pM and the “affinity to the VDR” value (conclusion drawn from the IC50) was “high affinity to the VDR”.
